Consider 1 compound from patent US20230119759A1, “PHARMACEUTICAL COMBINATION COMPRISING PYRIDINO[1,2-A]PYRIMIDINONE COMPOUND” (CHIA TAI TIANQING PHARMACEUTICAL GROUP CO., LTD., priority 2020, published 2023).

As a reminder, the T/C is the result in the treated group divided by that in the control group, in per cent. As a reminder, the TGI is the reduction of tumour growth relative to the control group. Read a low TGI as little slowing of growth.

This assay deals with BT-474 xenograft tumor. In words: Human breast cancer (BT-474) xenograft tumor model in nude mice. Format: in vivo, BALB/c female nude mice. Conditions: for Mean tumor volume (day 28) / T/C / TGI: day 28; for Mean tumor volume (day 0): day 0 (start of treatment, baseline). As to the method: BALB/c female nude mice (provided by Shanghai Sippr-BK Lab. Animal Co., Ltd.), SPF-grade, weight 18-25 g, aged about 8 weeks (tumor-bearing). Human breast cancer BT-474 cells (ATCC) were cultured in Hybri-Care medium containing 10% fetal bovine serum, 100 U/mL penicillin and […] in vitro monolayer culture at 37° C./5% CO2. The cells were digested with trypsin-EDTA twice a week for passaging as per conventional practice. When cell confluence was 80%-90%, the cells were collected, counted, and inoculated. Estrogen tablets were implanted 3 days before cell inoculation, 0.2 mL of BT-474 cells (1×10^7) were subcutaneously inoculated on the right back of each mouse, and grouping and administration was initiated when the mean tumor volume reached 127.19 mm^3. The compound of formula I was dissolved in a vehicle: 0.01 mol/L HCl solution, 0.5% methylcellulose and deionized water were mixed well in a volume ratio of 20:30:100.
The tumor volume was calculated using the following formula: V=0.5a×b^2, where a and b represent the long diameter and short diameter of the tumor, respectively. The percentage value of TIC (%) reflects the tumor growth inhibition rate, and where T and C represent the tumor weight (tumor volume) of the treatment groups and the control group, respectively, on a certain day.
The tumor growth inhibition rate was calculated using the following formula: TGI (%)=[1−(Ti−T0)/(Vi−V0)]×100, where Ti is the mean tumor volume of a certain treatment group on a certain day, T0 is the mean tumor volume of the treatment group at the start of treatment, Vi is the mean tumor volume of the vehicle control group on a certain day (same day as Ti) and V0 is the mean tumor volume of the vehicle control group at the start of treatment. Tumor weights were measured at the end of treatment and percentage Tweight/Cweight was calculated, where Tweight and Cweight represent the tumor weights of the treatment and vehicle control groups, respectively.
For orientation: Xenograft models place foreign cells or tissue in a host animal.

[1] abbreviates: 1 mg/kg orally once daily for 28 days.
Setting [2] is: 2 mg/kg orally once daily for 28 days.
[3] abbreviates: 4 mg/kg orally once daily for 28 days.

For `COc1ncc(-c2ccc3ncc(OCCN(C)C)c(=O)n3c2)cc1NS(=O)(=O)c1ccc(F)cc1Cl` [Compound of formula I], the “Mean tumor volume (day 28)” value under setting [1] was 223 ± 50 mm^3, the “Mean tumor volume (day 28)” value under setting [2] turned out to be 159 ± 36 mm^3 and the “Mean tumor volume (day 28)” value under setting [3] is recorded as 145 ± 40 mm^3. The T/C is, setting by setting: under setting [1], 56.09%; under setting [2], 40.11%; under setting [3], 36.52%. Further, the TGI by setting is: under setting [1], 64.56%; under setting [2], 88.10%; under setting [3], 93.35%. In addition, the “Mean tumor volume (day 0)” value is 127 ± 11 mm^3 (1 mg/kg orally once daily), 127 ± 11 mm^3 (2 mg/kg orally once daily) and 127 ± 11 mm^3 (4 mg/kg orally once daily). Also, where the note is “BT-474 xenograft tumor model, 1-4 mg/kg orally”, the “anti-tumor efficacy (in words)” value was “significant anti-tumor efficacy”.
